Assay results from article PMC3961306, “Comparison of the Cancer Gene Targeting and Biochemical Selectivities of All Targeted Kinase Inhibitors Approved for Clinical Use” (PLoS ONE, 2014).
pIC50: −log10 of the molar value. Where two headings read alike, the source gives them in different places.

How the values were obtained:
[1] = tested on: forty-four human cancer cell lines; test: Cell proliferation assay (ATPlite, 72 hours) in the 44 cell line Oncolines panel; type: cell-based; settings: Homo sapiens
[2] = molecular target: panel of more than 300 wild-type and mutant kinases (313 kinase panel) (Homo sapiens, UniProt Q9HC98); test: Kinase profiling in a biochemical assay panel (mobility shift assays and ELISA), %-inhibition at 1 μM; selectivity entropy; settings: 1 µM
[3] = molecular target: T1, panel of more than 300 wild-type and mutant kinases (313 kinase panel) (Homo sapiens, UniProt Q9UL54); test: as above; settings: 1 µM
T1 sequence (Q9UL54 1-1235): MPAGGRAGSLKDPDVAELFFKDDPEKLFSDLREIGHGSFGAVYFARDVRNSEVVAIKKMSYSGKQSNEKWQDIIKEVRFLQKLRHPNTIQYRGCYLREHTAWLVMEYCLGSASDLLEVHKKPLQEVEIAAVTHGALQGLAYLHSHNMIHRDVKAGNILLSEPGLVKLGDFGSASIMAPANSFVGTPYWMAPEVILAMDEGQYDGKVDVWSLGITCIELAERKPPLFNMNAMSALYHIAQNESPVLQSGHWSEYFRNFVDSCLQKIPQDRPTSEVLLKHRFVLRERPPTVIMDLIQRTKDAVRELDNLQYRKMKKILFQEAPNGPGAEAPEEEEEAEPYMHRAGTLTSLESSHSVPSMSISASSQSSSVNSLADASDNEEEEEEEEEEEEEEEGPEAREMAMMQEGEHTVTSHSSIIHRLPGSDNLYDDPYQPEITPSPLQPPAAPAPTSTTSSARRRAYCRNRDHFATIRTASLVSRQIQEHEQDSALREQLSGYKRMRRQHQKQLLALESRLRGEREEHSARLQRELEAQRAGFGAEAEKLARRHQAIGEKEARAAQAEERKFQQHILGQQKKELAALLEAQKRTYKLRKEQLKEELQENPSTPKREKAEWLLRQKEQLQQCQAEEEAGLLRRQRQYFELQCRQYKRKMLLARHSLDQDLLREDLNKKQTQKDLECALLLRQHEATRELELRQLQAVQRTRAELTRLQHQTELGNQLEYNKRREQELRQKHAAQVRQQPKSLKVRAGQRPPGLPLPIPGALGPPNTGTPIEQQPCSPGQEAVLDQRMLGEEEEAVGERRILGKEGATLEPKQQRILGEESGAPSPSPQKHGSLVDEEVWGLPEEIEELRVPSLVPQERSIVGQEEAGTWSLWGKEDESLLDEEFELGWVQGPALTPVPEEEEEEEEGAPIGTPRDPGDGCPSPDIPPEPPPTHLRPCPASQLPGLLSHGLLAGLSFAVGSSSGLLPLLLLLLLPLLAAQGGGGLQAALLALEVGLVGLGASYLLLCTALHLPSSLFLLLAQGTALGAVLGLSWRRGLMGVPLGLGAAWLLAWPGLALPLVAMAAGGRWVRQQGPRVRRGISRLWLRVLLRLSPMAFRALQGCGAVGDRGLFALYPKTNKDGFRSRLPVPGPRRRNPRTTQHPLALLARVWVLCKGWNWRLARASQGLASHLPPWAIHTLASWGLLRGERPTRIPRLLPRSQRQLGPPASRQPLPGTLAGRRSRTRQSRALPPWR

[4] = molecular target: panel of more than 300 wild-type and mutant kinases (313 kinase panel) (Homo sapiens, UniProt P10721, T670I); test: as above; settings: 1 µM
Chain of panel of more than 300 wild-type and mutant kinases (313 kinase panel) (Homo sapiens, UniProt P10721, T670I) (P10721 26-976 T670I): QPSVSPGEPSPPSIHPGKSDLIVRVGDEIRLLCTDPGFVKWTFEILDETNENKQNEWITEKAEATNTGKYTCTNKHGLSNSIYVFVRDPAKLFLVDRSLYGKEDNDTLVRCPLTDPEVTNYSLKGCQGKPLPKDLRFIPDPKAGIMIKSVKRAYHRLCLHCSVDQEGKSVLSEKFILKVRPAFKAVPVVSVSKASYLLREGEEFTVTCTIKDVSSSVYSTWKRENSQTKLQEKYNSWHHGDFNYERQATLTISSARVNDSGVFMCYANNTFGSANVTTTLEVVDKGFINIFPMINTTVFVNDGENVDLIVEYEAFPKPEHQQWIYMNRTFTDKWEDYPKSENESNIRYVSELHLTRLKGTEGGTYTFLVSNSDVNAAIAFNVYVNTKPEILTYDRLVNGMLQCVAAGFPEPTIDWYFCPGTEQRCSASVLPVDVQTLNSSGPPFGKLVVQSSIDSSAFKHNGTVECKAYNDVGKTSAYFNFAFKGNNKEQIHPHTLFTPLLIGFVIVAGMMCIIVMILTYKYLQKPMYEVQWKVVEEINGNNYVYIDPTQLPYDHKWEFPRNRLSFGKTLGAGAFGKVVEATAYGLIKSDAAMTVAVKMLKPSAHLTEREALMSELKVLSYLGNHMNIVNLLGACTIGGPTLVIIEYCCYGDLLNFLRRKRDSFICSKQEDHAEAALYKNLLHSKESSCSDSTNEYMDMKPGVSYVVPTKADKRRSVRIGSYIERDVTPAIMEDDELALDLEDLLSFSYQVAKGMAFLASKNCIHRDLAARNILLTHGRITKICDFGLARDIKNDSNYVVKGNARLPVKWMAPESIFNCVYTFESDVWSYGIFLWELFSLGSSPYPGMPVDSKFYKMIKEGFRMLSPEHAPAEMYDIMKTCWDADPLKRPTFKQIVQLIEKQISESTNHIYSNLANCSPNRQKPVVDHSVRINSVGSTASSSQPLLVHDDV

[5] = molecular target: panel of more than 300 wild-type and mutant kinases (313 kinase panel) (Homo sapiens, UniProt Q04912); test: as above; settings: 1 µM
[6] = molecular target: panel of more than 300 wild-type and mutant kinases (313 kinase panel) (Homo sapiens, UniProt P04049); test: as above; settings: 1 µM
Chain of panel of more than 300 wild-type and mutant kinases (313 kinase panel) (Homo sapiens, UniProt P04049) (P04049 whole entry, change not shown): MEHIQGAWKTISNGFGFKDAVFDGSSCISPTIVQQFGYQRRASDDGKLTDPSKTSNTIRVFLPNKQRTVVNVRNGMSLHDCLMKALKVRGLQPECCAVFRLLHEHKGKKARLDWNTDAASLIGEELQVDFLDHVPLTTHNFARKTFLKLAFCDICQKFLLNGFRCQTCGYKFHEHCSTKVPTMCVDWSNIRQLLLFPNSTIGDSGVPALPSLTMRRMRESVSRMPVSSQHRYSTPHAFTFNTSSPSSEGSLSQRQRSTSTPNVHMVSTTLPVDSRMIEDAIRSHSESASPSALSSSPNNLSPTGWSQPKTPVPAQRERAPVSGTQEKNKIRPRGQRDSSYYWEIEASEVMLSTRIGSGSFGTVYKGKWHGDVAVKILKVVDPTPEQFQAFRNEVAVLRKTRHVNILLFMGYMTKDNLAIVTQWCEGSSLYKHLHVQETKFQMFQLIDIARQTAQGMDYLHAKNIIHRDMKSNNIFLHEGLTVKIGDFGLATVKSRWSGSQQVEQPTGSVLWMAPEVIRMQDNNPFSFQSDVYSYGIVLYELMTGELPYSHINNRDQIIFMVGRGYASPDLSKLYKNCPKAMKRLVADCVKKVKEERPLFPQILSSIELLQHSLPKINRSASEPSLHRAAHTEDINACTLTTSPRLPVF

[7] = molecular target: panel of more than 300 wild-type and mutant kinases (313 kinase panel) (Homo sapiens, UniProt Q8N4C8); test: as above; settings: 1 µM
Chain of panel of more than 300 wild-type and mutant kinases (313 kinase panel) (Homo sapiens, UniProt Q8N4C8) (Q8N4C8 whole entry, change not shown): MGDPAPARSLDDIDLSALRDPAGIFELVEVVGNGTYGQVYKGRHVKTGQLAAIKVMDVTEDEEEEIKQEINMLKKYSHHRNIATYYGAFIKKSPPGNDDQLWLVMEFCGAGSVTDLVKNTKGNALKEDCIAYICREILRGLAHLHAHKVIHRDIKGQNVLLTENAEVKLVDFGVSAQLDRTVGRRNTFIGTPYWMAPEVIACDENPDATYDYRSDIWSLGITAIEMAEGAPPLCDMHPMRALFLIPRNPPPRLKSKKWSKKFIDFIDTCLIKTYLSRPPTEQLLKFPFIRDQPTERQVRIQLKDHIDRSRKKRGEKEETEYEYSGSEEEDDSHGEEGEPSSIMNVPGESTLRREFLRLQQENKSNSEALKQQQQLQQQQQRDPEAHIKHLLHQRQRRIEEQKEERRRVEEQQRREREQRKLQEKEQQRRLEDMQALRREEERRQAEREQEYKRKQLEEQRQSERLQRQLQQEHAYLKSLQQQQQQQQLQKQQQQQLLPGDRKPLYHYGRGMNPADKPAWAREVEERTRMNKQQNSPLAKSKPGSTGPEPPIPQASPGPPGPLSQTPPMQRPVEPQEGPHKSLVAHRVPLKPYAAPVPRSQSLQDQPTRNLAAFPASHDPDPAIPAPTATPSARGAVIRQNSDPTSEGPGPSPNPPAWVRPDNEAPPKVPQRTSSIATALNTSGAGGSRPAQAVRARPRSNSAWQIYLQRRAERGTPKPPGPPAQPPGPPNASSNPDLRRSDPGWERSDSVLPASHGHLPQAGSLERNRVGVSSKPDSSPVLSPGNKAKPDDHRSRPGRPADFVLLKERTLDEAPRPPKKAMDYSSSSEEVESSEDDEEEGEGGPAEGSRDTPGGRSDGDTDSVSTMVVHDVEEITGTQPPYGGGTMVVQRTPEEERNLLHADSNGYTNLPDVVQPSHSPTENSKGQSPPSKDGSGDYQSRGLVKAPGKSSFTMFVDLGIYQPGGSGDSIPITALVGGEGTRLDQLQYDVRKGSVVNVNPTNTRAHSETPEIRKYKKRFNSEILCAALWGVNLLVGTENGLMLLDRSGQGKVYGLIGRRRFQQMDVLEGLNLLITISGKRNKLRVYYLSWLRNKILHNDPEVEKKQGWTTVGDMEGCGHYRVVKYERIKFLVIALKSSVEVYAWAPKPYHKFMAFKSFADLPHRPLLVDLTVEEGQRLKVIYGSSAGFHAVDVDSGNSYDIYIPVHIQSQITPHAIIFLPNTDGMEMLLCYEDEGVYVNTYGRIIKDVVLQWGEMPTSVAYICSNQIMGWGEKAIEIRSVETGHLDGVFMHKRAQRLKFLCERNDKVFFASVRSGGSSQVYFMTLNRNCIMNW

For `C#Cc1cccc(Nc2ncnc3cc(OCCOC)c(OCCOC)cc23)c1` [erlotinib], the pIC50 ([1]; 4-4 cell, read-out: cell panel IC50, J82) was 5.34, the pIC50 ([1]; 4-4 cell, read-out: cell panel IC50, PA-1) was 5.39 and the pIC50 ([1]; 4-4 cell, read-out: cell panel IC50, SJCRH30) was < 4.50. The pIC50 ([1]; 4-4 cell, read-out: cell panel IC50, SR) was 5.37, the pIC50 ([1]; 769-P, read-out: cell panel IC50, 769-P) was 4.70 and the pIC50 ([1]; 786-0, read-out: cell panel IC50, 786-0) was 5.21. The pIC50 ([1]; A 172, read-out: cell panel IC50, A-172) was < 4.50, the pIC50 ([1]; A204, read-out: cell panel IC50, A-204) was 5.29 and the pIC50 ([1]; A498, read-out: cell panel IC50, A-498) was 5.30. For the same compound, the pIC50 ([1]; A-375, read-out: cell panel IC50, A375) was 5.30, the pIC50 ([1]; ACHN, read-out: cell panel IC50, ACHN) was 5.86 and the pIC50 ([1]; AN3-CA, read-out: cell panel IC50, AN3 CA) was 5.37. For the same compound, the pIC50 ([1]; AU565, read-out: cell panel IC50, AU-565) was 5.56, the pIC50 ([1]; BT-20, read-out: cell panel IC50, BT-20) was < 4.50 and the pIC50 ([1]; BXPC-3, read-out: cell panel IC50, BxPC-3) was 5.38. The pIC50 ([1]; C-33-A, read-out: cell panel IC50, C-33 A) was 6.06, the pIC50 ([1]; CAL-27, read-out: cell panel IC50, CAL 27) was 6.59 and the pIC50 ([1]; CCRF-CEM, read-out: cell panel IC50, CCRF-CEM) was < 4.50. The pIC50 ([1]; DLD-1, read-out: cell panel IC50, DLD-1) was 5.41, the pIC50 ([1]; FaDu, read-out: cell panel IC50, FaDu) was 5.94 and the pIC50 ([1]; HCT-15, read-out: cell panel IC50, HCT-15) was 5.20. It also gave a pIC50 ([1]; HCT-116, read-out: cell panel IC50, HCT-116) of 5.09, a pIC50 ([1]; Hs-578T, read-out: cell panel IC50, Hs 578T) of 5.15 and a pIC50 ([1]; Jurkat E6.1, read-out: cell panel IC50, Jurkat E6.1) of 4.65. The pIC50 ([1]; K562, read-out: cell panel IC50, K-562) was 5.15, the pIC50 ([1]; LS174T, read-out: cell panel IC50, LS 174T) was 5.49 and the pIC50 ([1]; LoVo, read-out: cell panel IC50, LoVo) was 5.65. The pIC50 ([1]; MG-63, read-out: cell panel IC50, MG-63) was 4.88, the pIC50 ([1]; MOLT-4, read-out: cell panel IC50, MOLT-4) was 5.20 and the pIC50 ([1]; MeWo, read-out: cell panel IC50, MeWo) was 5.04. For the same compound, the pIC50 ([1]; NCI-H82, read-out: cell panel IC50, NCI-H82) was 4.70, the pIC50 ([1]; NCI-H460, read-out: cell panel IC50, NCI-H460) was 5.26 and the pIC50 ([1]; OVCAR-3, read-out: cell panel IC50, OVCAR-3) was 5.26. For the same compound, the pIC50 ([1]; RPMI-7951, read-out: cell panel IC50, RPMI-7951) was < 4.50, the pIC50 ([1]; SHP77, read-out: cell panel IC50, SHP-77) was < 4.50 and the pIC50 ([1]; SK-N-AS, read-out: cell panel IC50, SK-N-AS) was 5.23. The pIC50 ([1]; SW48, read-out: cell panel IC50, SW48) was < 4.50, the pIC50 ([1]; SW480, read-out: cell panel IC50, SW480) was < 4.50 and the pIC50 ([1]; SW-620, read-out: cell panel IC50, SW620) was 5.19. For the same compound, the pIC50 ([1]; U2OS, read-out: cell panel IC50, U-2 OS) was < 4.50, the pIC50 ([1]; U-87 MG, 72 h, read-out: IC50 in cell proliferation assay (table S5 cellpanel data)) was < 4.50 and the “%-inhibition of NEK6” value [2] was 2%. The “%-inhibition of TAOK2” value [3] was -8%, the “%-inhibition of KIT(T670I)” value [4] was 14% and the “%-inhibition of RON” value [5] was 8%. For the same compound, the “%-inhibition of RAF1” value [6] was 0.534% and the “%-inhibition of MINK” value [7] was 19%.
